The numbers were not newly measured in publication PMC9587990, “Molecular basis for isoform-selective inhibition of presenilin-1 by MRK-560” (Nature Communications, 2022), which cites them from elsewhere.

This data set has as its system PS1-complex over PS2. The conditions noted are these: cited from earlier work.

Turning to `O=C1NCCCCC1N(Cc1ccc(Br)cc1)S(=O)(=O)c1ccc(Cl)cc1` (centres unmarked) [ELN318463], the reported isoform selectivity result is listed as “PS1 selectivity”. Consider `C[C@H](c1ccc(F)cc1CCCC(=O)O)N(c1cc(F)ccc1F)S(=O)(=O)c1ccc(Cl)cc1` [BMS299897], for which the reported isoform selectivity entry is given as “PS1 selectivity”.
